Source: US6664096B2, “Methods for improved diagnosis and treatment of mycobacterial infections” (priority 2000, dated 2003)
Where two headings read alike, the source gives them in different places.

How the values were obtained:
Format in all cases: cell-based
M. tuberculosis H37Ra [1] = assay: Resuscitation of 6 month old culture by phospholipids, CFU on 7H11 agar; details: for CFU/ml: 4 μg/ml, 6 month old cells, 7H11 agar, 3 weeks
Protocol: M. tuberculosis H37Ra cultures were grown in 7H9 medium containing Tween 80 (0.05%) and ADC (albumin-dextrose-catalase) enrichment at 37° C. for various periods of time as standing batch cultures. Cultures of varying age up to one year were used for the resuscitation experiments. Resuscitation of dormant M. tuberculosis by phosphatidylserine was performed as follows. A 6 month old M. tuberculosis H37Ra culture was washed and resuspended in 7H9 medium followed by plating at different dilutions on 7H11 agar plates containing 4 μg/ml phosphatidylserine (derived from bovine brain, containing a mixture of two unknown fatty acyl groups, Sigma Chemical Co.) or phosphatidylserine dioleoyl. The plates were incubated at 37° C. for 3 weeks when the CFU was determined. Data represent average of duplicate samples.
To confirm that a phospholipid was responsible for activity, we first tested commercially available phosphatidyl-L-serine and a dioleoyl phosphatidyl-L-serine, both of which are precursor of phosphatidylethanolamine and phosphatidylcholine, for resuscitation activity for the 6 month old M. tuberculosis H37Ra cells. Both compounds had significant resuscitation activity over medium control as judged by colony forming units (CFU) assay. Phosphatidyl-L-serine and a dioleoyl phosphatidyl-L-serine at 4 μg/ml gave 1.2×10^7, 2×10^6 CFU/ml, respectively, whereas the medium control produced 3×10^4 CFU/ml.

M. tuberculosis H37Ra [2] = details: 7-month-old culture
M. tuberculosis H37Ra [3] = details: 7-month-old culture; remark: listed apart in the source
M. tuberculosis H37Ra [4] = details: 4 week old culture
M. tuberculosis H37Ra [5] = details: 7-month-old culture; remark: listed apart in the source
M. tuberculosis H37Ra [6] = assay: Growth of small inocula of fresh 4-week-old culture with phosphatidylserine; details: 5 μg/ml in Sauton's medium, 20 days
Protocol: It is well known that to initiate growth of M. tuberculosis in liquid culture a large inoculum is required (Dubos and Davis, 1946). In a separate experiment involving a fresh 4-week-old M. tuberculosis H37Ra culture, the culture was serially diluted into Sauton's medium (1 ml) alone or into medium containing 5 μg/ml phosphatidylserine at 10^−2, 10^−3, 10^−4, 10^−5, 10^−6, 10^−7 dilutions. The cultures were incubated at 37° C. for 20 days when the visible growth was assessed and the cultures were plated on 7H11 plates, which were incubated at 37° C. for 3 weeks. Phosphatidyl-L-serine allowed small inocula (10^−7 dilution) to form visible growth and CFU on plates, whereas the control culture grew only at 10^−5 dilution.

Compound | CFU/ml (M. tuberculosis H37Ra [1]) | MTT data (OD readings at 570 nm) (M. tuberculosis H37Ra [2]; day 0) [OD] | MTT data (OD readings at 570 nm) (M. tuberculosis H37Ra [2]; day 5) [OD] | MTT data (OD readings at 570 nm) (M. tuberculosis H37Ra [2]; day 10) [OD] | FDA-EB viability staining (% of viable green cells) (M. tuberculosis H37Ra [3]; day 0) [%] | FDA-EB viability staining (% of viable green cells) (M. tuberculosis H37Ra [3]; day 5) [%] | FDA-EB viability staining (% of viable green cells) (M. tuberculosis H37Ra [3]; day 10) [%] | CFU values (M. tuberculosis H37Ra [4]; day 3) [mL⁻¹] | CFU values (M. tuberculosis H37Ra [4]; day 5) [mL⁻¹] | CFU values (M. tuberculosis H37Ra [4]; day 8) [mL⁻¹] | CFU values (M. tuberculosis H37Ra [4]; day 11) [mL⁻¹] | CFU data (M. tuberculosis H37Ra [5]; day 5) | CFU data (M. tuberculosis H37Ra [5]; day 10) | small inocula (dilution) forming visible growth and CFU on plates (M. tuberculosis H37Ra [6]) | resuscitation and growth enhancing activity (M. tuberculosis H37Ra [1]; compared with phosphatidylserine)
CCCCCCCC/C=C\CCCCCCCC(=O)OC[C@H](COP(=O)(O)OC[C@H](N)C(=O)O)OC(=O)CCCCCCC/C=C\CCCCCCCC [dioleoyl phosphatidyl-L-serine] | 2×10^6 CFU/ml | – | – | – | – | – | – | – | – | – | – | – | – | – | –
NH2-AQLQAVPGAAQYIGLVESVAGSCNNY-OH (H-AQLQAVPGAAQYIGLVESVAGSCNNY-OH; listed as Mycobacterium tuberculosis) [Peptide P4, residues 85-110] | – | 0.2248 | 0.6287 | 1.4131 | 1 | 11.5 | 50 | 2e+06 | 3.25e+06 | 7.5e+07 | 2e+08 | 50 × 10^5 CFU/ml | 900 × 10^5 CFU/ml | – | –
NH2-LNATDPGAAAQFNASPVAQSYLRN-OH (H-LNATDPGAAAQFNASPVAQSYLRN-OH; listed as Mycobacterium tuberculosis) [Peptide P2, residues 48-71] | – | 0.2609 | 0.6269 | 1.1567 | 1 | 2 | 27.5 | 225000 | 500000 | 1.5e+07 | 7.5e+07 | 100 × 10^5 CFU/ml | 200 × 10^5 CFU/ml | – | –
NH2-LRNFLAAPPPQRAAMAAQLQAV-OH (H-LRNFLAAPPPQRAAMAAQLQAV-OH; listed as Mycobacterium tuberculosis) [Peptide P3, residues 69-90] | – | 0.3147 | 0.6219 | 1.1917 | 2 | 4.5 | 42.5 | 450000 | 4.5e+07 | 1.5e+08 | 1.5e+08 | 40 × 10^5 CFU/ml | 800 × 10^5 CFU/ml | – | –
phosphatidyl-L-serine | 1.2×10^7 CFU/ml | – | – | – | – | – | – | – | – | – | – | – | – | 10^−7 | –
phosphatidylglycerol-oleoyl-palmitoyl [reference compound] | – | – | – | – | – | – | – | – | – | – | – | – | – | – | did not have significant activity
